NC(N)=S
solubility (mole fraction)
Conditions | 283.15 K | 288.15 K | 293.15 K | 298.15 K | 303.15 K | 308.15 K | 313.15 K | 318.15 K | 323.15 K
in 2-butanone | 0.0135 | 0.0154 | 0.0171 | 0.0189 | 0.0203 | 0.0219 | 0.0234 | 0.0247 | 0.0264
in acetone | 0.0348 | 0.0364 | 0.0375 | 0.0389 | 0.0401 | 0.042 | 0.0438 | 0.0465 | 0.0482
in acetonitrile | 0.00865 | 0.00982 | 0.0107 | 0.012 | 0.0134 | 0.0146 | 0.016 | 0.018 | 0.0196
in ethanol | 0.0172 | 0.02 | 0.0227 | 0.0254 | 0.0285 | 0.0315 | 0.0353 | 0.0394 | 0.0442
in ethyl acetate | 0.00497 | 0.00519 | 0.00548 | 0.0058 | 0.0062 | 0.00664 | 0.00718 | 0.00769 | 0.00814
in isobutanol | 0.00827 | 0.0101 | 0.0116 | 0.0132 | 0.0152 | 0.0171 | 0.0189 | 0.0224 | 0.0251
in isopropanol | 0.0133 | 0.0151 | 0.0168 | 0.019 | 0.0225 | 0.0246 | 0.0273 | 0.0308 | 0.0344
in methanol | 0.0423 | 0.0471 | 0.0521 | 0.0596 | 0.0644 | 0.07 | 0.0761 | 0.0848 | 0.0944
in methyl acetate | 0.00556 | 0.00628 | 0.00673 | 0.00747 | 0.00814 | 0.00885 | 0.00951 | 0.0102 | 0.0109
in n-butanol | 0.0104 | 0.0121 | 0.0133 | 0.015 | 0.0173 | 0.0195 | 0.0212 | 0.0238 | 0.0274
in n-propanol | 0.0128 | 0.0143 | 0.0157 | 0.0177 | 0.0209 | 0.0231 | 0.0255 | 0.029 | 0.0326
in water | 0.0211 | 0.0265 | 0.0325 | 0.0396 | 0.0493 | 0.0592 | 0.0701 | 0.0835 | 0.102
